Among the data in ChEMBL document CHEMBL4342401, “Cathepsin B: Active site mapping with peptidic substrates and inhibitors” (Bioorg Med Chem, 2019) are Ki, IC50 and Ratio values, retold here.

As a reminder, the Ki is the equilibrium dissociation constant of an inhibitor or competing ligand from its target. A lower Ki goes with a stronger hold on the target. A word on the IC50: it is the midpoint of a concentration-inhibition curve.

Assay [1] addresses T1, Cathepsin B (Homo sapiens, UniProt P07858). As to the kind of experiment: Inhibition of human liver cathepsin B using Z-Phe-Arg-AMC as substrate incubated for 30 mins by fluorescence based assay.
For assay [2], the target named is T1, Cathepsin B. As to the kind of experiment: Inhibition of human liver cathepsin B using Z-Arg-Arg-AMC as substrate preincubated for 15 mins followed by substrate addition and measured after 30 mins by fluorometric method.
In assay [3] the target is T1, Cathepsin B. Description: Inhibition of human cathepsin B assessed as ratio of Kinact to Ki using Z-Phe-Arg-NH-Mec as substrate incubated for 15 to 90 mins by fluorometric method.
In assay [4] the target is T1, Cathepsin B. As to the kind of experiment: Inhibition of recombinant human cathepsin B expressed in baculovirus expression system using Z-Arg-Arg-AMC as substrate incubated for 20 mins by fluorescence based assay.
Assay [5] concerns the target Cathepsin B (Bos taurus) (UniProt P07688). Description: Inhibition of bovine spleen cathepsin B assessed as ratio of Kinact to Ki by spectrophotometeric method.
For assay [6], the target named is T1, Cathepsin B. Description: Inhibition of cathepsin B (unknown origin) assessed as reduction in 7-amino-4-methylcoumarin formation using Z-Arg-Arg-MCA as substrate preincubated for 3 mins followed by substrate addition and measured after 10 mins by fluorescence spectrometric method.
In assay [7] the target is Cathepsin B (Bos taurus) (UniProt P07688). As to the kind of experiment: Inhibition of bovine cathepsin B assessed as ratio of Kinact to Ki using Z-Phe-Arg-pNA as substrate by UV/Vis spectrophotometric method.

*1 amine or outer side, *2 acyl side, *3 side chain or, on linkers, in order; H or OH if unused. Where a SMILES comes first, the peptide text is derived from it. [ ]: non-standard residue; d: D form. The star is where a group is joined. X1 = CC(C)C[C@H](N[*:1])C(=O)NC(=O)[C@H]1O[C@@H]1C(=O)[*:2]; N(6-aminohexyl)Gly = O=C(CN(CCCCCCN[*:3])[*:1])[*:2]; Biotin = O=C1N[C@H]2[C@H](CS[C@H]2CCCCC(=O)*)N1

On Cathepsin B [1], `CC(C)CC(NC(=O)c1ccc(Br)cc1)C(=O)N(C)N(C)C#N` (racemic) came in with an inhibitory constant (Ki) of 2 nM. In turn, `CN1CCN(C(=O)N[C@@H](Cc2ccccc2)C(=O)N[C@H](/C=C/S(=O)(=O)c2ccccc2)c2ccc(-c3ccccc3)cc2)CC1` showed an IC50 at Cathepsin B [2] of 300 nM.

As to `CCOC(=O)[C@@H]1O[C@H]1C(=O)N[C@@H](CC(C)C)C(=O)N1CCC[C@H]1C(=O)O`, the Ratio at Cathepsin B [3] amounted to 567000 M⁻¹ s⁻¹. Turning to `Cc1cccc(C[C@H](NC(=O)c2ccc(Cl)cc2F)C(=O)N[C@H](C#N)COCc2cccc(C(=O)O)c2)c1`, the IC50 on Cathepsin B [4] is under 10 nM. For `Cc1cccc(C[C@H](NC(=O)c2ccccc2)C(=O)N[C@H](C#N)COCc2cccc(C(=O)O)c2)c1`, the IC50 on Cathepsin B [4] was under 10 nM. Consider `CCCNC(=O)[C@H]1O[C@@H]1C(=O)N[C@@H](CC(C)C)C(=O)N1CCC[C@H]1C(=O)O`, for which the Ratio on Cathepsin B [3] was 152000 M⁻¹ s⁻¹. Still for that read-out and setting: in the case of `CCCNC(=O)[C@@H]1O[C@H]1C(=O)N[C@@H](CC(C)C)C(=O)N1CCC[C@H]1C(=O)O` it was 29400 M⁻¹ s⁻¹.

For the compound `CC(C)CCNC(=O)[C@H](Cc1ccccc1)NC(=O)[C@H]1O[C@@H]1C(=O)O`, the Ratio on Cathepsin B (Bos taurus) [5] came to 12300 M⁻¹ s⁻¹. As to `CCCCC(=O)N[C@@H](Cc1cccc(C)c1)C(=O)N[C@H](C#N)COCc1cccc(C(=O)O)c1`, on Cathepsin B [4], the IC50 was under 10 nM. At Cathepsin B [1], `CC(C)CC(NC(=O)c1cccc(-c2ccncc2)c1)C(=O)N(C)N(C)C#N` (racemic) had a Ki of 5 nM. In other words, the single-digit nanomolar range.

In the case of `COC(=O)CNC(=O)CNC(=O)[C@H](CC(C)C)NC(=O)[C@H]1O[C@@H]1C(=O)N[C@@H](CC(C)C)C(=O)N1CCC[C@H]1C(=O)O`, the Ratio on Cathepsin B [3] is 1.52e+06 M⁻¹ s⁻¹. `CC(C)CCNC(=O)[C@H](Cc1cc(I)c(O)c(I)c1)NC(=O)[C@H]1O[C@@H]1C(=O)O`: on Cathepsin B (Bos taurus) [5], the Ratio amounted to 105000 M⁻¹ s⁻¹. Take `CCOC(=O)[C@H]1O[C@@H]1C(=O)N[C@@H](CC(C)C)C(=O)N1CCC[C@H]1C(=O)O`: the Ratio at Cathepsin B [3] amounted to 44400 M⁻¹ s⁻¹.

Consider `CCOC(=O)[C@H]1O[C@@H]1C(=O)N[C@H](C(=O)N1CCC[C@H]1C(=O)O)[C@@H](C)CC`, for which the half-maximal inhibitory concentration (IC50) at Cathepsin B [6] was found to be 2.28 nM. In the case of `CC(=O)N[C@@H](Cc1ccccc1)C(=O)NCC(=O)COC(=O)[C@H](CC(C)C)NC(=O)OCc1ccccc1`, at Cathepsin B (Bos taurus) [7], the Ratio was 2700 M⁻¹ s⁻¹. For `CC(C)CC(NC(=O)c1ccc(-c2ccc(-c3ccccc3)cc2)cc1)C(=O)N(C)N(C)C#N` (racemic), the affinity at Cathepsin B [1], expressed as Ki, was 0.69 nM.

Consider `CC(C)C[C@H](NC(=O)CNC(=O)CNCCCCCCNC(=O)CCCC[C@@H]1SC[C@@H]2NC(=O)N[C@@H]21)C(=O)NC(=O)[C@H]1O[C@@H]1C(=O)N[C@@H](CC(C)C)C(=O)N1CCC[C@H]1C(=O)O` (H-[N(6-aminohexyl)Gly](Biotin)G[X1]LP-OH), for which the Ratio on Cathepsin B [3] is 1.6e+06 M⁻¹ s⁻¹. As to `CC(=O)N[C@@H](Cc1ccccc1)C(=O)NCC(=O)COC(=O)[C@@H](CC(C)C)NC(=O)OCc1ccccc1`, at Cathepsin B (Bos taurus) [7], the Ratio was determined as 300 M⁻¹ s⁻¹.
